Assay results: PMC6028563, “Probing Substituents in the 1- and 3-Position: Tetrahydropyrazino-Annelated Water-Soluble Xanthine Derivatives as Multi-Target Drugs With Potent Adenosine Receptor Antagonistic Activity” (Frontiers in Chemistry, 2018)
Read-outs that look alike come from different tables or passages of the source.

Experiments:
passive avoidance test = system: passive avoidance test; set-up: method as in Mihara et al., 2007; conditions: rats; ref Mihara et al., 2007; cited from earlier work
human A3 AR [1] = biological target: T1, human A3 AR (Homo sapiens, UniProt P0DMS8); conditions: human (h); Figure 2; ref Chen et al., 2002; Stössel et al., 2013; Mihara et al., 2007; read-out: A3 (Ki); cited from earlier work
T1 construct: expressed in transfected cells; host or cells: CHO cells
T1 sequence (P0DMS8 1-318): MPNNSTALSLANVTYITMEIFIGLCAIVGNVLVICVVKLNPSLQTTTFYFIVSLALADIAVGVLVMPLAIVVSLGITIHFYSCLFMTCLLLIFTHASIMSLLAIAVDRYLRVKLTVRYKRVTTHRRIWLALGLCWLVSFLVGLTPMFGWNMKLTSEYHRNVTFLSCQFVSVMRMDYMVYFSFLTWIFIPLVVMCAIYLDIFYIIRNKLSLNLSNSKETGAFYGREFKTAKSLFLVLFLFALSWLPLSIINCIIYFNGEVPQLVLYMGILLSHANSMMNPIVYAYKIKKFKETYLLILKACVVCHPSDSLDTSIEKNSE

[2] = system: haloperidol-induced catalepsy; set-up: method as in Mihara et al., 2007; conditions: monkeys; ref Mihara et al., 2007; cited from earlier work
rat A2A AR = biological target: T2, rat A2A AR (Rattus norvegicus, UniProt P30543); test: Radioligand binding assay at rat A2A AR (rat brain striatum) vs. [^3H]MSX-2; conditions: rat (r)
T2 construct: A2A ARs of rat brain striatal membrane preparations; from tissue; host or cells: rat brain striatum membranes
T2 sequence (P30543 whole entry): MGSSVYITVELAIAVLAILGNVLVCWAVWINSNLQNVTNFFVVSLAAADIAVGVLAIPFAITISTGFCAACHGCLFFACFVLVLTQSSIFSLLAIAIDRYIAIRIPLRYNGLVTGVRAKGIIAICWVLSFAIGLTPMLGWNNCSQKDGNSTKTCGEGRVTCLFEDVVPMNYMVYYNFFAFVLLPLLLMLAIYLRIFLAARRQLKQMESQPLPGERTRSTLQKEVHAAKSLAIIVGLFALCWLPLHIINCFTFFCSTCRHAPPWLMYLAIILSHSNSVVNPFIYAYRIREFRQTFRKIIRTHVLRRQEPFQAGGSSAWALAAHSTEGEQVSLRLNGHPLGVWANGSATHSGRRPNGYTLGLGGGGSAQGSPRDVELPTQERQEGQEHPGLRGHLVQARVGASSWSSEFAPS
Outline: (§1)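 Source of receptor: rat brain cortex (A1), rat brain striatum (A2A), recombinant CHO cell membranes (human subtypes). Binding only.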

human A3 AR [3] = biological target: T1, human A3 AR; test: Radioligand binding assay at human A3 AR vs. [^3H]PSB-11
Outline: as §1

human A2B AR = biological target: T3, human A2B AR (Homo sapiens, UniProt P29275); test: Radioligand binding assay at human A2B AR vs. [^3H]PSB-603
T3 construct: expressed in transfected cells; host or cells: CHO cells
T3 sequence (P29275 1-332): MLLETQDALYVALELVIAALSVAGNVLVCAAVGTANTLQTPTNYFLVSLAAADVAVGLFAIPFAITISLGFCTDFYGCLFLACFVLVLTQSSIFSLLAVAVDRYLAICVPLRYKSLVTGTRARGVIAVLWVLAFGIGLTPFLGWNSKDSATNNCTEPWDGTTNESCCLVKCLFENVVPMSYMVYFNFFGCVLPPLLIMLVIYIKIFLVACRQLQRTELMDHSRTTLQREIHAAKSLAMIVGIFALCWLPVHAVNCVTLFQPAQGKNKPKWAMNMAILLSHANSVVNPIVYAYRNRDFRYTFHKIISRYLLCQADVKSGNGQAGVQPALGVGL
Outline: as §1

recombinant human MAO-A [4] = biological target: T4, recombinant human MAO-A (Homo sapiens, UniProt P21397); test: Monoamine oxidase assay (Amplex Red), MAO-A; assay type: biochemical; conditions: for inhibition at 10 µM: at 10,000 nM, read-out: % inhibition at indicated concentration, Human MAO-A; for IC50: n = 3, read-out: IC50 ± SEM, Human MAO-A
T4 construct: purchased Sigma-Aldrich M7316; host or cells: baculovirus-infected insect cells
T4 sequence (P21397 1-527): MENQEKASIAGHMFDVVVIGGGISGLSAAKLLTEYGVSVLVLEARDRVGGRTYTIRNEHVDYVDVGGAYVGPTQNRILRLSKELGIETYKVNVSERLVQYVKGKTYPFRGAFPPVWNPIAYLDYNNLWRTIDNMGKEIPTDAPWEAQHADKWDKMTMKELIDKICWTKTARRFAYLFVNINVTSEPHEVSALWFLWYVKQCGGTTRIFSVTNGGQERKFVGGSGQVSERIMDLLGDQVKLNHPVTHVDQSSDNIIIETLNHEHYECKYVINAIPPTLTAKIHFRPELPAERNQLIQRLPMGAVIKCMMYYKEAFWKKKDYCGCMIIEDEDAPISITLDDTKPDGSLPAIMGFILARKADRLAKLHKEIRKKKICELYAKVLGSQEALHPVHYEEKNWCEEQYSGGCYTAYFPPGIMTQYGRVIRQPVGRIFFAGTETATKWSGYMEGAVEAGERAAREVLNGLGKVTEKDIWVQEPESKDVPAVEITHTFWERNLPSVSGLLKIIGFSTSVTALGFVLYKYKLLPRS
Outline: (§2)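 Inhibition was measured with an Amplex Red monoamine oxidase assay, using human MAO-A and MAO-B produced recombinantly in baculovirus-infected insect cells. For rat MAO-B, liver mitochondria-enriched fractions from male Sprague Dawley rats served as enzyme source.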

recombinant human MAO-B [5] = biological target: T5, recombinant human MAO-B (Homo sapiens, UniProt P27338); test: Monoamine oxidase assay (Amplex Red), MAO-B; assay type: biochemical; conditions: for inhibition at 10 µM: at 10,000 nM (10 μM), read-out: % inhibition at indicated concentration, Human MAO-B; for IC50: n = 3, read-out: IC50 ± SEM, Human MAO-B
T5 construct: purchased Sigma-Aldrich M7441; host or cells: baculovirus-infected insect cells
T5 sequence (P27338 1-520): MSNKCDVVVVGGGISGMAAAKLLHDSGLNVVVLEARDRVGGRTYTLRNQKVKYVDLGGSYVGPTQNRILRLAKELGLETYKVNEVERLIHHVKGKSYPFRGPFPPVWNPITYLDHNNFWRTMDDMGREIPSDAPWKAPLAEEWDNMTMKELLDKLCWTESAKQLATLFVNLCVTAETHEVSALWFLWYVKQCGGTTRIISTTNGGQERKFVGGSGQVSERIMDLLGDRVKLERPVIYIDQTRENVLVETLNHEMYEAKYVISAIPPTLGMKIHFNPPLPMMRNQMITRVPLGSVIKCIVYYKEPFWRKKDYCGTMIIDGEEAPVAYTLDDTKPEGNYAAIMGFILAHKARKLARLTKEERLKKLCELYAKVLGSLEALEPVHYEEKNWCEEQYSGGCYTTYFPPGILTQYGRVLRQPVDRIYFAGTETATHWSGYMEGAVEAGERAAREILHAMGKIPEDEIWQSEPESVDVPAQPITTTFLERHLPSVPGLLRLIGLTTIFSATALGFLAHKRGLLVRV
Outline: as §2

ARs = test: Radioligand binding assays at adenosine receptors (statements on ARs in general)
Procedure: Membrane preparations and radioligand binding assays at rat A1 (rat brain cortex) and rat A2A ARs (rat brain striatum) were performed as previously described (Ozola et al., [2003]; Alnouri et al., [2015]). For assays at human A1, A2A, A2B, and A3 ARs, CHO cell membranes expressing one of the human AR subtypes were used as previously reported (Klotz et al., [1998]; Alnouri et al., [2015]; De Filippo et al., [2016]).
The synthesized tetrahydropyrazino[2,1-f ]purinediones 13–20 were evaluated in radioligand binding assays for their affinity to A1 ARs of rat brain cortical membrane and to A2A ARs of rat brain striatal membrane preparations. Selected compounds were further investigated for their affinity to human A1 and A2A ARs recombinantly expressed in Chinese hamster ovary (CHO) cells. All compounds were additionally investigated for their affinity to human A2B and A3 ARs recombinantly expressed in CHO cells to determine their AR subtype selectivity. […] It is well known that all xanthine derivatives lacking a ribose moiety, including tricyclic compounds, can only block ARs, but never act as AR agonists; therefore, additional functional studies were not required. […] Potent MAO-B inhibitors were additionally investigated for inhibition of human MAO-A to assess their selectivity. Results are presented in Tables 1–6, and data of standard ligands are included for comparison.

rat A1 AR = biological target: T6, rat A1 AR (Rattus norvegicus, UniProt P25099); test: Radioligand binding assay at rat A1 AR (rat brain cortex) vs. [^3H]CCPA; conditions: rat (r)
T6 construct: A1 ARs of rat brain cortical membrane; from tissue; host or cells: rat brain cortex membranes
T6 sequence (P25099 1-326): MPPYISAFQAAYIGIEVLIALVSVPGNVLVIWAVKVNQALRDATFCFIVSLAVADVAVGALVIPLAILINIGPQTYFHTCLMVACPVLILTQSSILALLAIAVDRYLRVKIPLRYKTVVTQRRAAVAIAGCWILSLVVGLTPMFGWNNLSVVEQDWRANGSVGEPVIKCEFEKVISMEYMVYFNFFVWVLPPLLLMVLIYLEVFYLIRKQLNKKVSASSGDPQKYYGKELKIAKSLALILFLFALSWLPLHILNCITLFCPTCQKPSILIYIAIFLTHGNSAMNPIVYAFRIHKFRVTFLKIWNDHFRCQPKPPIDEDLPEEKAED
Outline: as §1

recombinant human MAO-B [6] = biological target: T5, recombinant human MAO-B; conditions: human (h); Figure 1; ref Petzer et al., 2009; Müller and Jacobson, 2011; Brunschweiger et al., 2014; cited from earlier work
recombinant human MAO-A [7] = biological target: T4, recombinant human MAO-A; conditions: human (h); Figure 1; ref Petzer et al., 2009; Müller and Jacobson, 2011; Brunschweiger et al., 2014; cited from earlier work

Question: For `CC(C)n1cc(-c2ncc(N)nc2-c2ccc(F)cc2)ccc1=O` [ASP-5854, 5-[5-amino-3-(4-fluorophenyl)pyrazin-2-yl]-1-isopropylpyridine-2(1H)-one], which “result in the passive avoidance test” value (passive avoidance test) is on record?
Answer: positive results

Question: What about the Ki (human A3 AR [1]) of the same molecule?
Answer: > 0.557 µM

Question: What about the “effect on haloperidol-induced catalepsy” value [2] of the same molecule?
Answer: reversed

Question: With `CCn1c(=O)c2c(nc3n2CCN(Cc2cc(C(F)(F)F)cc(C(F)(F)F)c2)C3)n(C)c1=O` [Compound 14q, 8-(3,5-bis(trifluoromethyl)benzyl)-3-ethyl-1-methyl-6,7,8,9-tetrahydropyrazino[2,1-f]purine-2,4(1H,3H)-dione] as the molecule, how does the “% inhibition of radioligand binding at indicated concentration, A2A vs. [^3H]MSX-2” value (rat A2A AR; at 1,000 nM) read?
Answer: 39%

Question: And the Ki (rat A2A AR; rat brain striatum, n = 3, read-out: Ki ± SEM, A2A vs. [^3H]MSX-2)?
Answer: > 1 µM

Question: What about the Ki (human A3 AR [3]; CHO cell membranes, n = 2 (n = 3 where marked a), read-out: Ki ± SEM, A3 vs. [^3H]PSB-11) of the same molecule?
Answer: > 10 µM

Question: What about the inhibition at 10 µM (human A3 AR [3]; at 10,000 nM, read-out: % inhibition of radioligand binding at indicated concentration, A3 vs. [^3H]PSB-11) of the same molecule?
Answer: 32%

Question: And the Ki (human A2B AR; CHO cell membranes, n = 2 (n = 3 where marked a), read-out: Ki ± SEM, A2B vs. [^3H]PSB-603)?
Answer: > 1 µM

Question: And the inhibition at 1 µM (human A2B AR; at 1,000 nM, read-out: % inhibition of radioligand binding at indicated concentration, A2B vs. [^3H]PSB-603)?
Answer: 2%

Question: And the inhibition at 10 µM (recombinant human MAO-A [4])?
Answer: 8%

Question: What about the IC50 (recombinant human MAO-A [4]) of the same molecule?
Answer: > 10 µM

Question: And the inhibition at 10 µM (recombinant human MAO-B [5])?
Answer: 56%

Question: And the IC50 (recombinant human MAO-B [5])?
Answer: < 10 µM

Question: And the “affinity for ARs (in words)” value (ARs)?
Answer: nearly inactive

Question: And the Ki (rat A1 AR; rat brain cortex, n = 3)?
Answer: > 1.5 µM

Question: What about the inhibition at 1.5 µM (rat A1 AR; read-out: % inhibition of radioligand binding at indicated concentration, A1 vs. [^3H]CCPA, at 1,500 nM) of the same molecule?
Answer: 31%

Question: With `CCn1c(=O)c2c(nc(/C=C/c3ccc(OC)c(OC)c3)n2C)n(CC)c1=O` [Istradefylline, istradefylline, reference compound] as the molecule, how does the “result in the passive avoidance test” value (passive avoidance test) read?
Answer: inactive

Question: And the IC50 (recombinant human MAO-B [6])?
Answer: > 10 µM

Question: And the IC50 (recombinant human MAO-A [7])?
Answer: > 10 µM

Question: And the inhibition at 10 µM (recombinant human MAO-A [4])?
Answer: 18%

Question: And the IC50 (recombinant human MAO-A [4])?
Answer: > 10 µM

Question: And the inhibition at 10 µM (recombinant human MAO-B [5])?
Answer: 20%

Question: What about the IC50 (recombinant human MAO-B [5]) of the same molecule?
Answer: > 10 µM
